The record followed here is US20260327221A1, “INHIBITORS OF CYCLIC GMP-AMP SYNTHASE AND USES THEREOF” (Ventus Therapeutics U.S., Inc., priority 2023, published 2026).

By IC50 is commonly meant the point on the concentration scale where inhibition reaches its midpoint.

Bounds are passed on as bounds.

The first test deals with hcGAS (Homo sapiens, UniProt Q8N884). In words: hcGAS LCMS assay (direct measurement of cGAMP production by LC/MS). The test is classed as biochemical. Particulars: 4 h incubation with enzyme and substrates; cGAMP production by LC/MS; class symbols; read-out: hcGAS LCMS IC50. The protocol: cGAS catalyzes the cyclization of ATP and GTP to produce cGAMP, which is the activating ligand of STING. Human cGAS (hcGAS) inhibition can thus be quantified by measuring how much cGAMP is formed either indirectly, by monitoring ATP-depletion as in the hcGAS Kinase-Glo assay (as described below), or directly, such as using the hcGAS LCMS assay (as described below).
hcGAS, sequence (Q8N884 whole entry): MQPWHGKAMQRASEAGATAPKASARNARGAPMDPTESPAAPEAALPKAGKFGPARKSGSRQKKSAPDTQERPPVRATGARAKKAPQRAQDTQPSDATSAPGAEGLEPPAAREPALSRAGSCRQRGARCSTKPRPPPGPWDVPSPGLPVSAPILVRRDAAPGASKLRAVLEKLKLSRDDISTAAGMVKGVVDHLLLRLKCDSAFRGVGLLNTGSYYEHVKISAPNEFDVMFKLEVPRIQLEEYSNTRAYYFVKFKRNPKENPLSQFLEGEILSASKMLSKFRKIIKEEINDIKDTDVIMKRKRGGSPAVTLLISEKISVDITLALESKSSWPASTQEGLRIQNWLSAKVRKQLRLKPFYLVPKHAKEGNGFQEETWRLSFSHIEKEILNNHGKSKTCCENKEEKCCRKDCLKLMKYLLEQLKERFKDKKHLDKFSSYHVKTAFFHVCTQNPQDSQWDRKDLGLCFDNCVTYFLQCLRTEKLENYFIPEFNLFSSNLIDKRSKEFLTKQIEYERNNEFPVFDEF
2. hGAS LCMS Assay Conditions
Compounds were tested for their hcGAS inhibition activity using direct measurement of cGAMP production by LC/MS. Briefly, compounds were incubated with enzyme and substrates for 4 hours (see Table C), before the reaction was stopped with 3 volumes of 70/30 Acetonitrile/H2O mix containing 0.15 uM cGAMP-^13C10^15N5 as internal standard and mixed for 5 mmn. After centrifugation (3700 rpm, […], […]), 100 uL of each reaction was collected and mixed to equal volume of acetonitrile (MeCN). Samples were then analyzed on Qexactive (Column: XBridge BEH Amide Column, 130 Å, 3.5 μm, 3 mm×50 mm. Mobile phase A: 10 mM Ammonium acetate in 95/5 H2O/MeCN (0.5% DMSO), Mobile phase B: MeCN (0.5% DMSO).
The results of the assay, expressed as IC50 values, are reported in Table D with the following designations: A represents an IC50 value <0.005 μM (with A1 representing an IC50 value <0.0005 μM, A2 representing an IC50 value ≥0.0005 μM and <0.001 μM, and A3 representing an IC50 value ≥0.001 μM and <0.005 μM); B represents an IC50 value ≥0.005 μM and <0.02 μM; C represents an IC50 value ≥0.02 μM and <0.06 μM; and D represents an IC50 value ≥0.06 μM.
As for `COc1cccc(OC)c1-c1cc(C(=O)Nc2nnc(-n3nccc3N)s2)oc(=O)c1O[C@@H](CO)C1CC1` [106B*, (R)-N-(5-(5-amino-1H-pyrazol-1-yl)-1,3,4-thiadiazol-2-yl)-3-(1-cyclopropyl-2-hydroxyethoxy)-4-(2,6-dimethoxyphenyl)-2-oxo-2H-pyran-6-carboxamide], the IC50 was in the range of 1 to 5 nM.

For `COc1c(-c2ccccc2C#N)cc(C(=O)Nc2nnc(-n3nccc3C)s2)oc1=O` [Compound 1, 4-(2-cyanophenyl)-3-methoxy-N-(5-(5-methyl-1H-pyrazol-1-yl)-1,3,4-thiadiazol-2-yl)-2-oxo-2H-pyran-6-carboxamide], the IC50 fell in the range of 0.5 to 1 nM.

Turning to `COc1c(-c2ccccc2S(C)(=O)=O)cc(C(=O)Nc2nnc(-n3nccc3C)s2)oc1=O` [Compound 2, 3-methoxy-N-(5-(5-methyl-1H-pyrazol-1-yl)-1,3,4-thiadiazol-2-yl)-4-(2-(methylsulfonyl)phenyl)-2-oxo-2H-pyran-6-carboxamide], the IC50 was 5 to 20 nM.

Regarding `COc1c(-c2ccccc2P(C)(C)=O)cc(C(=O)Nc2nnc(-n3nccc3C)s2)oc1=O` [Compound 3, 4-(2-(dimethylphosphoryl)phenyl)-3-methoxy-N-(5-(5-methyl-1H-pyrazol-1-yl)-1,3,4-thiadiazol-2-yl)-2-oxo-2H-pyran-6-carboxamide], the IC50 fell in the range of 20 to 60 nM.

Regarding `COCCOc1c(-c2ncccc2OC)cc(C(=O)Nc2nnc(-n3nccc3C)s2)oc1=O` [Compound 4, 3-(2-methoxyethoxy)-4-(3-methoxypyridin-2-yl)-N-(5-(5-methyl-1H-pyrazol-1-yl)-1,3,4-thiadiazol-2-yl)-2-oxo-2H-pyran-6-carboxamide], the IC50 was in the range of 5 to 20 nM.

Consider `COCCOc1c(-c2c(OC)cccc2OC)cc(C(=O)Nc2nnc(-c3c(Cl)ccn3C)s2)oc1=O` [Compound 5, N-(5-(3-chloro-1-methyl-1H-pyrrol-2-yl)-1,3,4-thiadiazol-2-yl)-4-(2,6-dimethoxyphenyl)-3-(2-methoxyethoxy)-2-oxo-2H-pyran-6-carboxamide], for which the IC50 was less than 0.5 nM.

On to `COCCOc1c(-c2c(OC)cccc2OC)cc(C(=O)Nc2nnc(-n3nccc3N)s2)oc1=O` [Compound 6, N-(5-(5-amino-1H-pyrazol-1-yl)-1,3,4-thiadiazol-2-yl)-4-(2,6-dimethoxyphenyl)-3-(2-methoxyethoxy)-2-oxo-2H-pyran-6-carboxamide], for which the IC50 lay within 0.5 to 1 nM.

Consider `COCCOc1c(-c2ncccc2C#N)cc(C(=O)Nc2nnc(-n3nccc3C)s2)oc1=O` [Compound 7, 4-(3-cyanopyridin-2-yl)-3-(2-methoxyethoxy)-N-(5-(5-methyl-1H-pyrazol-1-yl)-1,3,4-thiadiazol-2-yl)-2-oxo-2H-pyran-6-carboxamide], for which the IC50 lay in the range of 1 to 5 nM.

With `COCCOc1c(-c2c(C#N)cccc2OC)cc(C(=O)Nc2nnc(-n3nccc3N)s2)oc1=O` [Compound 8, N-(5-(5-amino-1H-pyrazol-1-yl)-1,3,4-thiadiazol-2-yl)-4-(2-cyano-6-methoxyphenyl)-3-(2-methoxyethoxy)-2-oxo-2H-pyran-6-carboxamide], the IC50 lay in the range of 0.5 to 1 nM.

As for `COCCOc1c(-c2ncccc2C#N)cc(C(=O)Nc2nnc(-n3nccc3N)s2)oc1=O` [Compound 9, N-(5-(5-amino-1H-pyrazol-1-yl)-1,3,4-thiadiazol-2-yl)-4-(3-cyanopyridin-2-yl)-3-(2-methoxyethoxy)-2-oxo-2H-pyran-6-carboxamide], the IC50 was 0.5 to 1 nM.

On to `COCCOc1c(-c2ncccc2OC)cc(C(=O)Nc2nnc(-n3nccc3N)s2)oc1=O` [Compound 10, N-(5-(5-amino-1H-pyrazol-1-yl)-1,3,4-thiadiazol-2-yl)-3-(2-methoxyethoxy)-4-(3-methoxypyridin-2-yl)-2-oxo-2H-pyran-6-carboxamide], for which the IC50 is 1 to 5 nM.

For `COCCOc1c(-c2c(C)cccc2OC)cc(C(=O)Nc2nnc(-n3nccc3N)s2)oc1=O` [Compound 11, N-(5-(5-amino-1H-pyrazol-1-yl)-1,3,4-thiadiazol-2-yl)-4-(2-methoxy-6-methylphenyl)-3-(2-methoxyethoxy)-2-oxo-2H-pyran-6-carboxamide], the IC50 fell in the range of 0.5 to 1 nM.

Take `COCCOc1c(-c2c(C#N)cccc2C#N)cc(C(=O)Nc2nnc(-n3nccc3N)s2)oc1=O` [Compound 12, N-(5-(5-amino-1H-pyrazol-1-yl)-1,3,4-thiadiazol-2-yl)-4-(2,6-dicyanophenyl)-3-(2-methoxyethoxy)-2-oxo-2H-pyran-6-carboxamide]: the IC50 lay in the range of 0.5 to 1 nM.

As for `COCCOc1c(-c2c(F)cccc2OC)cc(C(=O)Nc2nnc(-n3nccc3N)s2)oc1=O` [Compound 13, N-(5-(5-amino-1H-pyrazol-1-yl)-1,3,4-thiadiazol-2-yl)-4-(2-fluoro-6-methoxyphenyl)-3-(2-methoxyethoxy)-2-oxo-2H-pyran-6-carboxamide], the IC50 was in the range of 0.5 to 1 nM.

For the molecule `COc1c(-c2c(C#N)cnn2C)cc(C(=O)Nc2nnc(-n3nccc3C)s2)oc1=O` [Compound 14, 4-(4-cyano-1-methyl-1H-pyrazol-5-yl)-3-methoxy-N-(5-(5-methyl-1H-pyrazol-1-yl)-1,3,4-thiadiazol-2-yl)-2-oxo-2H-pyran-6-carboxamide], the IC50 is 20 to 60 nM.

Consider `COc1cccc(OC)c1-c1cc(C(=O)Nc2nnc(-n3nccc3N)s2)oc(=O)c1OCCO` [Compound 17, N-(5-(5-amino-1H-pyrazol-1-yl)-1,3,4-thiadiazol-2-yl)-4-(2,6-dimethoxyphenyl)-3-(2-hydroxyethoxy)-2-oxo-2H-pyran-6-carboxamide], for which the concentration for half-maximal inhibition (IC50) is less than 0.5 nM.

As for `COCCOc1c(-c2ncccc2OC)cc(C(=O)Nc2nnc(-c3c(F)ccn3C)s2)oc1=O` [Compound 18, N-(5-(3-fluoro-1-methyl-1H-pyrrol-2-yl)-1,3,4-thiadiazol-2-yl)-3-(2-methoxyethoxy)-4-(3-methoxypyridin-2-yl)-2-oxo-2H-pyran-6-carboxamide], the IC50 was 1 to 5 nM.

With `COCCOc1c(-c2c(OC)ccnc2OC)cc(C(=O)Nc2nnc(-n3nccc3N)s2)oc1=O` [Compound 19, N-(5-(5-amino-1H-pyrazol-1-yl)-1,3,4-thiadiazol-2-yl)-4-(2,4-dimethoxypyridin-3-yl)-3-(2-methoxyethoxy)-2-oxo-2H-pyran-6-carboxamide], the IC50 lay in the range of 1 to 5 nM.

Turning to `COCC(COC)Oc1c(-c2c(OC)cccc2OC)cc(C(=O)Nc2nnc(-n3nccc3N)s2)oc1=O` [Compound 20, N-(5-(5-amino-1H-pyrazol-1-yl)-1,3,4-thiadiazol-2-yl)-4-(2,6-dimethoxyphenyl)-3-((1,3-dimethoxypropan-2-yl)oxy)-2-oxo-2H-pyran-6-carboxamide], the IC50 lay within 1 to 5 nM.

As for `COCCCOc1c(-c2ncccc2OC)cc(C(=O)Nc2nnc(-n3nccc3N)s2)oc1=O` [Compound 21, N-(5-(5-amino-1H-pyrazol-1-yl)-1,3,4-thiadiazol-2-yl)-3-(3-methoxypropoxy)-4-(3-methoxypyridin-2-yl)-2-oxo-2H-pyran-6-carboxamide], the IC50 is 1 to 5 nM.

With `COc1cccc(OC)c1-c1cc(C(=O)Nc2nnc(-n3nccc3N)s2)oc(=O)c1OCCN1CCOCC1` [Compound 22, N-(5-(5-amino-1H-pyrazol-1-yl)-1,3,4-thiadiazol-2-yl)-4-(2,6-dimethoxyphenyl)-3-(2-morpholinoethoxy)-2-oxo-2H-pyran-6-carboxamide], the IC50 is 1 to 5 nM.

The test is the same for the next values; noted with them: hcGAS 0.5 nM; ATP 100 μM; GTP 100 μM; dsDNA 25 nM; pH 7.4; 4 h incubation; read-out: hcGAS inhibition IC50 (activity class, Table D).
On to `COc1c(-c2ccccc2C#N)cc(C(=O)Nc2nnc(-n3nccc3C)s2)oc1=O` [Compound 1, 4-(2-cyanophenyl)-3-methoxy-N-(5-(5-methyl-1H-pyrazol-1-yl)-1,3,4-thiadiazol-2-yl)-2-oxo-2H-pyran-6-carboxamide], for which the IC50 was in the range of 0.5 to 1 nM.
